From the supplement of paper PMC11821682

Legend:
[1] = tested on: Danio rerio embryo; experiment: BMC10 any morphological effect or mortality at 120 hpf; higher = less toxic
Description: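 ZBEscreen: dechorionated Tropical 5D zebrafish embryos were exposed from 4 hpf in 96-well plates (1% DMSO, 28 °C). All compounds were first tested at 100 µM; hits were retested at 0.005-100 µM. Morphology and mortality were scored at 120 hpf and fitted as BMC10 (3-parameter log-logistic, extra risk). The embryonic photomotor response at 24 hpf and the larval photomotor response at 120 hpf are given as lowest effect levels (K-S test, p<0.01). NA = not significant up to 100 µM; NT = not tested.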

[2] = tested on: HL-60; experiment: Cell Health Index (toxicity pseudo-probability over dose series) (index 0-1); higher = more cytotoxic / cell stress;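 also: HL-60 cells exposed 4 h at 37 °C to ten threefold dilutions spanning 5 nM to 100 µM, multiparametric flow cytometry features scored by machine-learning classification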

Row | Compound | BMC10 any morphological effect or mortality [1] | Cell Health Index [2]
1 | O=c1[nH]c(=O)n([C@@H]2O[C@H](CO)[C@@H](O)[C@@H]2F)cc1I [Fialuridine] | > 100 µM | 0.209
2 | CC(C)CN(C[C@@H](OP(=O)([O-])[O-])[C@H](Cc1ccccc1)NC(=O)O[C@H]1CCOC1)S(=O)(=O)c1ccc(N)cc1.[Ca+2] [Fosamprenavir] | > 100 µM | 0.242
3 | O=C([O-])P(=O)([O-])[O-].[Na+].[Na+].[Na+] [Foscarnet] | > 100 µM | 0.13
4 | CO[C@@H]1[C@H](OC(=O)/C=C/C=C/C=C/C=C/C(=O)O)CC[C@]2(CO2)[C@H]1[C@@]1(C)O[C@@H]1CC=C(C)C [Fumagillin] | > 100 µM | 0.187
5 | CC(C)OC(=O)[C@H](C)N[P@](=O)(CO[C@H](C)Cn1cnc2c(N)ncnc21)Oc1ccccc1 [GS-7340] | > 100 µM | 0.202
6 | Nc1nc(=O)c2ncn(COC(CO)CO)c2[nH]1 [Ganciclovir] | > 100 µM | 0.179
7 | CCNCc1nc2c(N)nc3ccccc3c2n1CC(C)(C)O [Gardiquimod] | > 100 µM | 0.172
8 | Cl.Nc1ccn([C@@H]2O[C@H](CO)[C@@H](O)C2(F)F)c(=O)n1 [Gemcitabine] | > 100 µM | 0.172
9 | COC(=O)C1=CO[C@@H](O[C@@H]2O[C@H](CO)[C@@H](O)[C@H](O)[C@H]2O)[C@@H]2C(CO)=CC[C@H]12 [Geniposide] | > 100 µM | 0.251
10 | C=C[C@@H]1C2=CCOC(=O)C2=CO[C@H]1O[C@@H]1O[C@H](CO)[C@@H](O)[C@H](O)[C@H]1O [Gentiopicrin] | > 100 µM | 0.225
11 | O=C1O[C@@H]2[C@H]3OC(=O)c4cc(O)c(O)c(O)c4-c4c(cc(O)c(O)c4O)C(=O)OC[C@@H]2OC(OC(=O)c2cc(O)c(O)c(O)c2)[C@H]3OC(=O)c2cc(O)c(O)c3c2C2C1=CC(=O)C(O)(O3)C2(O)O (some centres not stated) [Geraniin] | > 100 µM | 0.824
12 | CC(C)=CCC[C@](C)(O[C@@H]1O[C@H](CO[C@@H]2O[C@H](CO)[C@@H](O)[C@H](O)[C@H]2O)[C@@H](O)[C@H](O)[C@H]1O)[C@H]1CC[C@]2(C)[C@@H]1[C@H](O)C[C@@H]1[C@@]3(C)CC[C@H](O[C@@H]4O[C@H](CO)[C@@H](O)[C@H](O)[C@H]4O[C@@H]4O[C@H](CO)[C@@H](O)[C@H](O)[C@H]4O)C(C)(C)[C@@H]3CC[C@]12C [Ginsenoside Rb1] | > 100 µM | 0.145
13 | O[C@H]1[C@@]2([H])[C@](CC[C@]2([H])[C@@](CC/C=C(C)/C)(C)O[C@@H]3O[C@H](CO[C@H]4[C@H](O)[C@@H](O)[C@@H](O)CO4)[C@@H](O)[C@H](O)[C@H]3O)(C)[C@]5(C)CC[C@]6([H])[C@@](CC[C@H](O[C@]7([H])O[C@H](CO)[C@@H](O)[C@H](O)[C@H]7O[C@@]8([H])[C@H](O)[C@@H](O)[C@H](O)[C@@H](CO)O8)C6(C)C)(C)[C@@]5([H])C1 [Ginsenoside Rb2] | > 100 µM | 0.173
14 | CC1(C)CC[C@]2(C(=O)O[C@@H]3O[C@H](CO)[C@@H](O)[C@H](O)[C@H]3O)CC[C@]3(C)C(=CC[C@@H]4[C@@]5(C)CC[C@H](O[C@@H]6O[C@H](C(=O)O)[C@@H](O)[C@H](O)[C@H]6O[C@@H]6O[C@H](CO)[C@@H](O)[C@H](O)[C@H]6O)C(C)(C)[C@@H]5CC[C@]43C)[C@@H]2C1 [Ginsenoside Ro] | > 100 µM | 0.229
15 | CC(C)(C)[C@@H]1NC(=O)O[C@@H]2CCC[C@H]2OC/C=C/C(F)(F)c2nc3ccccc3nc2O[C@@H]2C[C@@H](C(=O)N[C@]3(C(=O)NS(=O)(=O)C4(C)CC4)C[C@H]3C(F)F)N(C2)C1=O [Glecaprevir] | > 100 µM | 0.369
16 | COc1cc2c(=O)c(-c3ccc(O)cc3)coc2cc1O[C@@H]1O[C@H](CO)[C@@H](O)[C@H](O)[C@H]1O [Glycitin] | > 100 µM | 0.158
17 | CC1(C)[C@@H](O[C@H]2O[C@H](C(=O)O)[C@@H](O)[C@H](O)[C@H]2O[C@@H]2O[C@H](C(=O)O)[C@@H](O)[C@H](O)[C@H]2O)CC[C@]2(C)[C@H]3C(=O)C=C4[C@@H]5C[C@@](C)(C(=O)O)CC[C@]5(C)CC[C@@]4(C)[C@]3(C)CC[C@@H]12.N [Glycyrrhizin] | > 100 µM | 0.295
18 | C=C[C@H]1C[C@@]1(NC(=O)[C@@H]1C[C@@H]2CN1C(=O)[C@H](C(C)(C)C)NC(=O)O[C@@H]1C[C@H]1CCCCCc1nc3ccc(OC)cc3nc1O2)C(=O)NS(=O)(=O)C1CC1 [Grazoprevir] | > 100 µM | 0.532
19 | COc1ccc(C2CC(=O)c3c(O)cc(O)cc3O2)cc1O (configuration not stated) [Hesperetin] | > 100 µM | 0.258
20 | COc1ccc([C@@H]2CC(=O)c3c(O)cc(O[C@@H]4O[C@H](CO[C@@H]5O[C@@H](C)[C@H](O)[C@@H](O)[C@H]5O)[C@@H](O)[C@H](O)[C@H]4O)cc3O2)cc1O [Hesperidin] | > 100 µM | 0.204
21 | CCN(CCO)CCCC(C)Nc1ccnc2cc(Cl)ccc12.O=S(=O)(O)O (configuration not stated) [Hydroxychloroquine] | > 100 µM | 0.211

Row | Compound | BMC10 any morphological effect or mortality [1] | Cell Health Index [2]
22 | NC(=O)NO [Hydroxyurea] | > 100 µM | 0.161
23 | O=c1[nH]c(=O)n([C@H]2C[C@H](O)[C@@H](CO)O2)cc1I [Idoxuridine] | > 100 µM | 0.205
24 | CC(C)Cn1cnc2c(N)nc3ccccc3c21 [Imiquimod] | > 100 µM | 0.269
25 | CC(C)(C)NC(=O)[C@@H]1CN(Cc2cccnc2)CCN1C[C@@H](O)C[C@@H](Cc1ccccc1)C(=O)N[C@H]1c2ccccc2C[C@H]1O.O=S(=O)(O)O [Indinavir] | > 100 µM | 0.233
26 | CC(=O)Nc1ccc(C(=O)O)cc1.CC(=O)Nc1ccc(C(=O)O)cc1.CC(=O)Nc1ccc(C(=O)O)cc1.CC(O)CN(C)C.CC(O)CN(C)C.CC(O)CN(C)C.O=c1nc[nH]c2c1ncn2[C@@H]1O[C@H](CO)[C@@H](O)[C@H]1O [Inosine] | > 100 µM | 0.242
27 | CC1=CC(=O)/C(=C/c2ccc(O)c(O)c2)O1 [Inotilone] | > 100 µM | 0.76
28 | CC1(C)[C@@H]2CC[C@@]1(C)[C@H](O)C2 [Isoborneol] | > 100 µM | 0.173
29 | COc1ccc(/C=C/C(=O)O)cc1O [Isoferulic acid] | > 100 µM | 0.171
30 | O=c1c(O[C@@H]2O[C@H](CO)[C@@H](O)[C@H](O)[C@H]2O)c(-c2ccc(O)c(O)c2)oc2cc(O)cc(O)c12 [Isoquercetin] | > 100 µM | 0.31
31 | N[C@H]1CONC1=O [L-Cycloserine] | > 100 µM | 0.19
32 | Nc1ccn([C@@H]2CS[C@H](CO)O2)c(=O)n1 [Lamivudine] | > 100 µM | 0.2
33 | COC(=O)N[C@H](C(=O)N1CC2(CC2)C[C@H]1c1ncc(-c2ccc3c(c2)C(F)(F)c2cc(-c4ccc5nc([C@@H]6[C@H]7CC[C@H](C7)N6C(=O)[C@@H](NC(=O)OC)C(C)C)[nH]c5c4)ccc2-3)[nH]1)C(C)C [Ledipasvir] | > 100 µM | 0.231
34 | COc1cccc(N2CCN(C3=Nc4c(F)cccc4[C@H](CC(=O)O)N3c3cc(C(F)(F)F)ccc3OC)CC2)c1 [Letermovir] | > 100 µM | 0.303
35 | CC(=O)N[C@@H](CC(C)C)C(=O)N[C@@H](CC(C)C)C(=O)N[C@H](C=O)CCCNC(=N)N.CC(=O)N[C@@H](CC(C)C)C(=O)N[C@@H](CC(C)C)C(=O)N[C@H](C=O)CCCNC(=N)N.O=S(=O)(O)O [Leupeptin] | > 100 µM | 0.184
36 | CC1(C)O[C@H]2CC(=O)OC[C@]23[C@H]2CC[C@@]4(C)[C@H](c5ccoc5)OC(=O)[C@H]5O[C@]54[C@]2(C)C(=O)C[C@@H]13 [Limonin] | > 100 µM | 0.145
37 | CC(C)(C)C#Cc1cc(N(C(=O)[C@H]2CC[C@H](C)CC2)[C@H]2CC[C@@H](O)CC2)c(C(=O)O)s1 [Lomibuvir] | > 100 µM | 0.414
38 | Cc1cccc(C)c1OCC(=O)N[C@@H](Cc1ccccc1)[C@@H](O)C[C@H](Cc1ccccc1)NC(=O)[C@H](C(C)C)N1CCCNC1=O [Lopinavir] | > 100 µM | 0.752
39 | CCCCc1nc(Cl)c(C=O)n1Cc1ccc(-c2ccccc2-c2nnn[nH]2)cc1 [Losartan carboxaldehyde] | > 100 µM | 0.293
40 | CCCCc1nc(Cl)c(C(=O)O)n1Cc1ccc(-c2ccccc2-c2nnn[nH]2)cc1 [Losartan carboxylic acid] | > 100 µM | 0.221
41 | CCCCc1nc(Cl)c(CO)n1Cc1ccc(-c2ccccc2-c2nnn[n-]2)cc1.[K+] [Losartan] | > 100 µM | 0.209
